Entries after “also recorded” stand apart in the source; their conditions may differ.
Legend:
Assay type in all cases: in vivo
[1] = test system: Arabidopsis (Columbia-0) roots; assay: in vitro root assay with synthetic CLE peptides on Arabidopsis roots; conditions: 10 μM peptide in assay medium, compared with no peptide or Ag-16p
Text: (§1) Mounting evidence supports that the conserved CLE motif represents the major functional domain of plant CLE proteins. Gr-CLE genes encode four different 12-aa CLE motifs (FIG. 1A). To examine the functional sufficiency of these nematode CLE motifs, we conducted in vitro root assays (Fiers et al. 2005) using synthetic dodecapeptides (GrCLE1-1-12p, GrCLE4-1-12p, GrCLE4-2-12p, and GrCLE4-3-12p) corresponding to the four CLE motifs of Gr-CLE proteins. A 16-aa peptide (Ag-16p) (Fiers et al. 2005) corresponding to the C-terminus of AGAMOUS that has no similarity with plant CLE motifs and a 12-aa CLV3 peptide (CLV3-12p) were used as negative and positive controls, respectively. In addition, several peptides, including a mutated GrCLE1-1 dodecapeptide (GrCLE1-1m-12p, with a Gly-to-Ala conversion as in clv3-1 and clv3-5 mutants), a 14-aa GrCLE1-1 peptide (GrCLE1-1-14p, with one additional N-terminal and one additional C-terminal residue compared to Gr-CLE1-1-12p), and three 13-aa peptides of GrCLE4-1-13p, GrCLE4-2-13p, and GrCLE4-3-13p (all contained an extra N-terminal lysine residue compared to the corresponding dodecapeptides), were synthesized and used in the in vitro root assays.
(§2) Peptides with a purity of >70% were synthesized (Sigma-Aldrich Corp., St. Louis, Mo., U.S.A) and dissolved in filter-sterilized 50 mM sodium phosphate buffer. Three Gr-CLE-1 related peptides were synthesized: GrCLE1-1-12p (12 aa, RVIPGGPDPLHN; SEQ ID NO: 12), GrCLE1-1m-12p (12 aa, RVIPGAPDPLHN; SEQ ID NO: 13, with a G-to-A conversion at position 6), and GrCLE1-1-14p (14 aa, KRVIPGGPDPLHNR; SEQ ID NO: 14). Six Gr-CLE-4 related peptides were synthesized: GrCLE4-1-12p (12 aa, RVAGAGPDPIHH; SEQ ID NO: 15), GrCLE4-1-13p (13 aa, KRVAGAGPDPIHH; SEQ ID NO: 16), GrCLE4-2-12p (12 aa, RAVPAGPDPKHH; SEQ ID NO: 17), GrCLE4-2-13p (13 aa, KRAVPAGPDPKHH; SEQ ID NO: 18), GrCLE4-3-12p (12 aa, RGAPAGPDP IHH; SEQ ID NO: 19), and GrCLE4-3-13p (13 aa, KRGAPAGPDPIHH; SEQ ID NO: 20). Positive and negative control peptides included CLV3-12p (12 aa, RTVPSGPDPLHH; SEQ ID NO: 21) and Ag-16p (16 aa, APNNHHYSSAGRQDQT; SEQ ID NO: 22) (Fiers et al., 2005).
(§3) For peptide treatments, seeds of wild-type Arabidopsis (Columbia-0) and potato, nonhost and host of G. rostochiensis, respectively, were surface-sterilized and plated on square plates (8-12 seeds per plate) containing the assay medium (Fiers et al. 2005, supra) with 10 μM of each peptide. Assay plates were placed vertically in a growth chamber and cultured at 23° C. for 16 h of light and 8 h of dark. The root length was measured from the base of the hypocotyl to the tip of the primary root at several time points after plating. Two independent experiments were conducted.

potato roots = assay: in vitro root assay with synthetic CLE peptides on potato roots; conditions: 10 μM peptide in assay medium, compared with no peptide or Ag-16p
Text: as §1, §2, §3

potato hairy roots = assay: overexpression of Gr-CLE genes in potato hairy roots; conditions: measured at 4, 6, 8 and 10 days after dissecting; compared with vector control
Text: To examine root meristems, primary root tips were excised from peptide treated Arabidopsis seedlings or from transgenic potato hairy roots and immediately mounted in water onto a glass slide. Roots were examined under an Olympus BX-50 microscope equipped with Nomarski optics and images were captured using a QImaging Retiga EXi digital CCD camera (QImaging, Surrey, BC, Canada). The root apical meristem (RAM) regions of individual primary roots that covered the distance from the position around the quiescent center to the position where elongated root cells immediately follow cytoplasm-dense meristematic cells were measured microscopically. The collected data were analyzed using the MetaMorph imaging analysis software (Universal Imaging Corporation, Downingtown, Pa., U.S.A.)
A. rhizogenes strain 15834 was transformed with individual transgene constructs of interest and used for the generation of potato hairy roots as described previously (Wang et al. 2007. Mol. Plant Pathol. 8:423-436) with some modifications. Potato stem pieces from tissue cultures were incubated with the transformed A. rhizogenes cell suspension for 10 mins, then transferred onto the callus induction medium containing 1×MS salts (Sigma-Aldrich), 26.7 μM Glycine, 4 μM Nicotinic Acid, 2.4 μM Pyridoxine HCL (Sigma-Aldrich), 1.2 μM Thiamine HCL (Sigma-Aldrich), 0.5 μM Folic Acid, 0.2 μM d-biotin (Sigma-Aldrich), 0.01% Myo-inositol (Acros, Morris Plains, N.J., U.S.A.), 3% sucrose, 0.001% 6-BAP (Sigma-Aldrich), 0.002% NAA (Sigma-Aldrich), and 1% agar and cultivated for four days at 24° C. without light. The infected stem pieces were then cultured on the propagation medium containing 1×MS salts, 1.2 mM NaH2PO4, 0.01% Myo-inositol, 0.1% Thiamine HCl, 3% sucrose, 1% agar, 50 μg/mL of kanamycin, and 238 μg/mL of timentin (GlaxoSmithKline). Timentin was used to inhibit the growth of A. rhizogenes 15834 and kanamycin was added to select for transformed roots. Approximately 12-15 days after root emergence, 1 cm-long root tips were dissected and cultured on vertical plates containing the propagation medium with 119 μg/mL of timentin and the root growth rate was measured at different time points.

Molecule | suppression of root growth (length of main root) [1] | suppression of root growth (length of main root) (potato roots) | suppression of root growth (length of main root) ([1]; listed as Gr-CLE4-2-12p) | suppression of root growth (length of main root) (potato roots; listed as Gr-CLE4-2-12p) | length of primary roots of transgenic potato hairy root lines (potato hairy roots)
KRGAPAGPDPIHH (LRGAPAGPDPIHH; listed as Globodera rostochiensis) [GrCLE4-3-13p, 13 aa peptide with extra N-terminal lysine] | did not show activities on root suppression | did not show activities on root suppression | – | – | –
RVAGAGPDPIHH (listed as Globodera rostochiensis) [GrCLE4-1-12p, 12 aa Gr-CLE-4 related peptide] | suppressed root growth; also recorded: significantly shorter | suppressed root growth; also recorded: significantly shorter | – | – | –
KRVIPGGPDPLHNR (listed as Globodera rostochiensis) [GrCLE1-1-14p, 14 aa GrCLE1-1 peptide withone additional N-terminal and C-terminal residue] | significantly shorter; also recorded: comparable level of root suppression activity as GrCLE1-1-12p | significantly shorter | – | – | –
KRAVPAGPDPKHH (LRAVPAGPDPLHH; listed as Globodera rostochiensis) [GrCLE4-2-13p, 13 aa peptide with extra N-terminal lysine] | did not show activities on root suppression | did not show activities on root suppression | – | – | –
KRVAGAGPDPIHH (LRVAGAGPDPIHH; listed as Globodera rostochiensis) [GrCLE4-1-13p, 13 aa peptide with extra N-terminal lysine] | did not show activities on root suppression | did not show activities on root suppression | – | – | –
RGAPAGPDP IHH (RGAPAGPDPIHH; listed as Globodera rostochiensis) [GrCLE4-3-12p, 12 aa Gr-CLE-4 related peptide] | suppressed root growth; also recorded: significantly shorter | suppressed root growth; also recorded: significantly shorter | – | – | –
RAVPAGPDPKHH (RAVPAGPDPLHH; listed as Globodera rostochiensis) [GrCLE4-2-12p, 12 aa Gr-CLE-4 related peptide] | significantly shorter | significantly shorter | suppressed root growth | suppressed root growth | –
RVIPGAPDPLHN (listed as Globodera rostochiensis) [GrCLE1-1m-12p, mutated GrCLE1-1 dodecapeptide with a G-to-A conversion at position 6] | significantly shorter | significantly shorter | – | – | –
Gr-CLE-4-D: G. rostochiensis CLE gene of class Gr-CLE-4, cDNA SEQ ID NO: 6 (nucleic acid, listed as Globodera rostochiensis) DNA: ATCATAATTTCCAAAATCCCAATAAAAGCTTCCTCAATAAAGTAAATATGGCCAAGAACGCAATGCTTTGCCTGCTAATTTTGAGCGTTGTTCTCGCTCTCGCATTTGCTACGAATAAAAAGGATGATGAAGAACCGGAGAACCATTCGACCGGCATTTTTGGAAAGGTCGGACGAGTTGTGACCGTGGCACTTGCGATGTCGTCTCGTCTGGGAGGGGCTAACGCAACCCGAGGAGGTGGAGCTGTATATGGAAGAAACTTGAAATCCAATCAATTGCCAAACAACAATTGGATGGCGCCACCTCCTCCAATGGCAATGAGAAGTGCCAAAGTCTATGATTCGAAACATTCTCCTGCTGAATATCTTAAAAAATTTGCTCAAGACTTTCGCCGAAAAACCGGCACGCACTCCCAGCGGCATCACGAAGAAACAACACTGGAACAGGAGAAGCGTGGAGCGCCAGCTGGGCCCGACCCAATACATCACCAAGATACAACATTTGAACAGGAGAAGCGTGGAGCGCCAGCTGGGCCCGACCCAATACATCACCAAGATACAACACTGGAACAGGAGAAGCGTGTAGCGGGAGCTGGGCCCGACCCAATACATCACCAAGATACAAAATTTGAACAGGAGAAGCGTGGAGCGCCAGCTGGGCCCGACCCAATACATCACTGATGCTCTTATTCACAATGCTAAAATATTTTAGACTATAGATAAATTGCTAGCAACAGATAAATGCCTATTCAT | – | – | – | – | short root phenotype

From US8569578B1, “Generating transgenic potatoes with novel resistance to potato cyst nematodes by silencing nematode parasitism genes of CLE -1 and CLE-4s” (The United States of America, as represented by the …, priority 2009, dated 2013)
